Assay: mn = molality of the nth substance listed, in mol/kg
Conditions: 101.3 kPa, Liquid; for viscosity: Capillary tube (Ostwald / Ubbelohde) method

O=[N+]([O-])[O-].O=[N+]([O-])[O-].[Zn+2] [nitric acid, zinc salt] + O
Conditions	mass density [kg/m3]	speed of sound [m/s]	viscosity [mPa·s]
303.15 K, m1 = 2.145	–	1622.9	–
303.15 K, m1 = 2.29	–	1632.6	–
303.15 K, m1 = 2.292	–	1630.1	–
303.15 K, m1 = 2.344	–	1634.7	–
303.15 K, m1 = 2.91	–	1664	–
303.15 K, m1 = 3.472	–	1691.2	–
303.15 K, m1 = 4.075	–	1714.1	–
303.15 K, m1 = 4.817	–	1739.4	–
303.15 K, m1 = 5.224	–	1748.1	–
303.15 K, m1 = 5.797	–	1760.4	–
303.15 K, m1 = 6.34	–	1768.2	–
303.15 K, m1 = 6.89	–	1772.4	–
303.15 K, m1 = 7.349	–	1774	–
303.2 K, m1 = 6.89	1705.2	–	–
303.25 K, m1 = 5.8	1629.7	–	–
303.65 K, m1 = 0.6111	1084.7	–	–
303.65 K, m1 = 1.906	1255.3	–	–
303.7 K, m1 = 0.3388	1045.4	–	–
303.75 K, m1 = 1.113	1154	–	–
303.75 K, m1 = 1.258	1173.4	–	–
303.75 K, m1 = 4.075	1486.4	–	–
303.85 K, m1 = 4.817	1551.9	–	–
303.95 K, m1 = 2.29	1300.6	–	–
304 K, m1 = 3.472	1428.2	–	–
304.15 K, m1 = 5.224	1584.8	–	–
304.2 K, m1 = 7.349	1732.6	–	–
304.3 K, m1 = 1.551	1210.3	–	–
304.3 K, m1 = 2.344	1306.7	–	–
304.35 K, m1 = 0.6405	1088.5	–	–
304.45 K, m1 = 2.292	1300.6	–	–
304.85 K, m1 = 0.1329	1014.5	–	–
304.85 K, m1 = 2.91	1369.1	–	–
304.85 K, m1 = 6.89	1703.4	–	–
305.1 K, m1 = 5.8	1627.9	–	–
305.4 K, m1 = 2.145	1282.8	–	–
305.45 K, m1 = 6.34	1666.3	–	–
305.65 K, m1 = 0.0875	1007.5	–	–
305.65 K, m1 = 4.075	1484.9	–	–
305.7 K, m1 = 1.906	1254.1	–	–
306.1 K, m1 = 1.258	1172	–	–
306.15 K, m1 = 2.29	1299.2	–	–
306.25 K, m1 = 0.2466	1031	–	–
306.25 K, m1 = 1.113	1152.7	–	–
306.3 K, m1 = 2.344	1305.3	–	–
306.35 K, m1 = 0.6111	1083.6	–	–
306.35 K, m1 = 2.292	1299.4	–	–
306.55 K, m1 = 1.551	1209.4	–	–
306.6 K, m1 = 0.3388	1044.3	–	–
306.75 K, m1 = 2.91	1367.8	–	–
307.05 K, m1 = 0.6405	1087.4	–	–
307.35 K, m1 = 2.145	1281.5	–	–
307.5 K, m1 = 4.817	1548.6	–	–
307.55 K, m1 = 4.075	1483.4	–	–
307.55 K, m1 = 7.349	1729.2	–	–
307.75 K, m1 = 3.472	1425.1	–	–
307.75 K, m1 = 5.224	1581.5	–	–
307.85 K, m1 = 0.1329	1013.4	–	–
307.9 K, m1 = 1.906	1252.7	–	–
308.15 K, m1 = 0.0875	–	1525.6	–
308.15 K, m1 = 0.1329	–	1523.4	0.76
308.15 K, m1 = 0.2466	–	1527.9	0.787
308.15 K, m1 = 0.3388	–	1532.5	0.809
308.15 K, m1 = 0.6111	–	1543.7	0.884
308.15 K, m1 = 0.6405	–	1544.7	0.892
308.15 K, m1 = 1.113	–	1566.6	1.044
308.15 K, m1 = 1.258	–	1576.6	1.107
308.15 K, m1 = 1.551	–	1592.5	1.216
308.15 K, m1 = 1.906	–	1612.5	1.405
308.15 K, m1 = 2.145	–	1624.2	1.548
308.15 K, m1 = 2.29	–	1632.3	1.622
308.15 K, m1 = 2.292	–	1630.7	–
308.15 K, m1 = 2.344	–	1635	1.645
308.15 K, m1 = 2.91	–	1662.2	2.035
308.15 K, m1 = 3.472	–	1687	2.554
308.15 K, m1 = 4.075	–	–	3.149
308.15 K, m1 = 4.817	–	–	4.24
308.15 K, m1 = 5.224	–	–	4.878
308.15 K, m1 = 5.797	–	–	6.183
308.15 K, m1 = 6.34	–	–	7.469
308.15 K, m1 = 6.89	–	–	9.274
308.15 K, m1 = 7.349	–	–	10.94
